Assay results as given in patent US20220370385A1, “COMPOSITIONS FOR USE IN INHIBITING SRC KINASE AND TREATING AND PREVENTING ASSOCIATED DISORDERS” (Enzene Biosciences Ltd., priority 2019, published 2022).
Entries after “also recorded” stand apart in the source; their conditions may differ.

What was measured:
[1] = Pharmacokinetic study after single oral administration; format: in vivo; settings: Sprague Dawley, rat, plasma, male rats
Experimental: A study to determine the pharmacokinetics of E05 after single oral (10 mg/kg) administration in male Sprague Dawley rats was carried out. […] The absolute oral bioavailability of Small molecule was 80% (FIG. 18).

SRC kinase = target: T1, SRC kinase (Homo sapiens, UniProt P12931); test: Kinase inhibitor screening assay (Promega kinase selectivity profiling, ADP-Glo); format: biochemical; set-up: dose or concentration left out as unconfirmed; settings: panel of 16 tyrosine kinases
T1 construct: purchased Promega
T1 sequence (P12931 whole entry): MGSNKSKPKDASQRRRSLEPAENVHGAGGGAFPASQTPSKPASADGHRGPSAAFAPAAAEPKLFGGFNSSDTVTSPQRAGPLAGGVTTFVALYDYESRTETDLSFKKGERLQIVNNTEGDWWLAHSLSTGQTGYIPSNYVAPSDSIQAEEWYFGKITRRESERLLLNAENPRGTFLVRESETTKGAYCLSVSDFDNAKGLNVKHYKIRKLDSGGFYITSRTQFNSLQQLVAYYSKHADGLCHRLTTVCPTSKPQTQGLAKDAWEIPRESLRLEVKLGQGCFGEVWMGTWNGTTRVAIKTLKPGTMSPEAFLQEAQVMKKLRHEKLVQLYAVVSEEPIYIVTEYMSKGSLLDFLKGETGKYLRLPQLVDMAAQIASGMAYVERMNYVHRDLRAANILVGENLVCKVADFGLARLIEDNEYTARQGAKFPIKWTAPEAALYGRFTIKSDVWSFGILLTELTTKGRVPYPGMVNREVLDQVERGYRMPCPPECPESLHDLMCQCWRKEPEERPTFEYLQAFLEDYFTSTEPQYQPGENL
Experimental: The kinase selectivity profiling systems from Promega was used to check the inhibitory activity of the purified compound against the broad panel of Tyrosine kinases. The kinase selectivity assays were assembled in a 384-well plate using 1 μl of the purified compound ([…]), 2 μl of each kinase working stock and 2 μl of the corresponding ATP/Substrate working stock as per the manufacturer protocol and kinase activity was quantified using the ADP-Glo™ kinase assay from Promega. The reaction assembled with kinase and corresponding ATP/Substrate without the purified compound was used as a positive control.

MDA-MB-468 cells [2] = test: MDA-MB-468 cell viability, CellTiter-Glo, 24 hrs; format: cell-based, human; settings: Homo sapiens, 24 hrs incubation
Experimental: MDA-MB-468 cells, isolated from a pleural effusion of a patient with metastatic adenocarcinoma of the breast, is a triple negative breast cancer (TNBC) cell line. The IC 50 value of E05 or lapatinib (Sigma) or the structural analogues of E05 were tested in this cell line.
(§1) Briefly, MDA-MB-468 cells (ATCC #HTB-32) were seeded with a density of 5,000 cells per well in a 96 well white plate (Costar Cat #3917) in DMEM media supplemented with 10% FBS (assay medium). The plates were incubated at 37° C., 5% CO2 for 24 hr. E05 and analogues were diluted in the assay medium and added to the respective wells of the assay plate. The plates were further incubated at 37° C., 5% CO2 for 24 hrs. After the incubation, the cell viability was assessed using CellTiter-Glo® and the plates were read for luminescence using Cytation 5 (Biotek). The relative luminescence unit (RLU) obtained was plotted against the concentration and EC50 values were estimated using Graphpad Prism 5 software (FIG. 15 and Table 2).

[3] = tested on: breast cancer cell line BT-474; test: Anti-proliferative activity in BT-474; format: cell-based
MDA-MB-468 = test: Murine xenograft model of Triple-Negative Breast Cancer; format: in vivo, SCID mice; settings: oral, twice daily
Experimental: Efficacy study of E05 and positive control (5-Fluorouracil) were carried out in a murine xenograft model of Triple-Negative Breast Cancer (MDA-MB-468). Dosing was done as per the Table. 3.
Female SCID (Severe Combined Immunodeficient) mice were used for this study.
Approximately 5×10^6 cells in 0.2 mL FBS free medium containing 50% of Matrigel was injected into sub-cutaneous tissue on right flank of each mouse. Treatment with E05 or with positive control was initiated when average tumor volume reaches ˜100 mm3. Tumor volume was measured periodically.

[4] = Repeated dose 7-day dose range finding study, oral gavage; format: in vivo
Experimental: Repeated dose 7-day dose range finding study (DRF) of E05 through oral gavage was carried out in Wistar rats.

[5] = Repeated dose 7-day dose range finding study, intravenous bolus injection; format: in vivo; settings: for Morbidity % / Morbidity No / Mortality % / Mortality No: i.v. bolus 7 days
Experimental: Repeated dose 7-day dose range finding study (DRF) of E05 through intravenous bolus injection was carried out in Wistar rats.

MDA-MB-468 cells [6] = test: MDA-MB-468 cell viability, CellTiter-Glo, 8 hrs, comparison with lapatinib; format: cell-based, human; settings: MDA-MB-468, within 8 hrs of incubation
Experimental: as §1, with “MDA-MB-468 cells” for “Briefly, MDA-MB-468 cells”, “E05 and Lapatinib was diluted in” for “E05 and analogues were diluted in”, “the assay plates. The plates” for “the assay plate. The plates”, “CO2 for 8 hrs. After” for “CO2 for 24 hrs. After”, “Prism 5 software.” for “Prism 5 software (FIG. 15 and Table 2).”

[7] = tested on: colon cancer cell line HCT116; test: Anti-proliferative activity in HCT116; format: cell-based
[8] = Female G2 250 mg/kg b. wt., oral gavage 7 days
[9] = Female G3 500 mg/kg b. wt., oral gavage 7 days
[10] = Female G4 1000 mg/kg b. wt., oral gavage 7 days
[11] = Male G2 250 mg/kg b. wt., oral gavage 7 days
[12] = Male G3 500 mg/kg b. wt., oral gavage 7 days
[13] = Male G4 1000 mg/kg b. wt., oral gavage 7 days

O=C(O)CCc1ccc(O)c(O)c1 [E05, 3-(3,4-Dihydroxyphenyl) propanoic acid]
bioavailability ([1]; oral 10 mg/kg, read-out: absolute oral bioavailability): 80% | AUC(0-t) ([1]; single oral gavage 10 mg/kg): 151 ng·h/mL | Cmax ([1]; single oral gavage 10 mg/kg): 306 ng/mL | Tmax ([1]; single oral gavage 10 mg/kg, read-out: mean time to reach peak plasma concentration (Tmax)): 15 min | SRC kinase activity (SRC kinase): inhibited | EC50 (MDA-MB-468 cells [2]): 86.1 µM | inhibition of growth [3]: dose dependent response; also recorded: dose dependent inhibition of growth | efficacy in the murine xenograft model of TNBC (MDA-MB-468; 6 weeks): statistically significant efficacy | tumor volumes (MDA-MB-468; 6 weeks, 75, 200, 500 mg/kg): Dose dependent decrease in tumor volumes | Morbidity % [4, 8]: 0% | Morbidity No [4, 8]: 0 | Mortality % [4, 8]: 0% | Mortality No [4, 8]: 0 | Morbidity % [4, 9]: 0% | Morbidity No [4, 9]: 0 | Mortality % [4, 9]: 0% | Mortality No [4, 9]: 0 | Morbidity % [4, 10]: 0% | Morbidity No [4, 10]: 0 | Mortality % [4, 10]: 0% | Mortality No [4, 10]: 0 | Morbidity % [4, 11]: 0% | Morbidity No [4, 11]: 0 | Mortality % [4, 11]: 0% | Mortality No [4, 11]: 0 | Morbidity % [4, 12]: 0% | Morbidity No [4, 12]: 0 | Mortality % [4, 12]: 0% | Mortality No [4, 12]: 0 | Morbidity % [4, 13]: 0% | Morbidity No [4, 13]: 0 | Mortality % [4, 13]: 0% | Mortality No [4, 13]: 0 | food consumption, organ weight and relative organ weight ([4]; male and female rats, oral gavage 7 days): No treatment-related changes | mortality, morbidity or clinical sign ([4]; rat, in vivo, po): no mortality, morbidity or clinical sign | toxicity ([4]; up to 1000 mg/kg b. wt., orally through gavage, 7 consecutive days): did not produce any toxicity | Morbidity % ([5]; Female G2 125 mg/kg b. wt): 0% | Morbidity No ([5]; Female G2 125 mg/kg b. wt): 0 | Mortality % ([5]; Female G2 125 mg/kg b. wt): 0% | Mortality No ([5]; Female G2 125 mg/kg b. wt): 0 | Morbidity % ([5]; Female G3 250 mg/kg b. wt): 0% | Morbidity No ([5]; Female G3 250 mg/kg b. wt): 0 | Mortality % ([5]; Female G3 250 mg/kg b. wt): 0% | Mortality No ([5]; Female G3 250 mg/kg b. wt): 0 | Morbidity % ([5]; Female G4 500 mg/kg b. wt): 0% | Morbidity No ([5]; Female G4 500 mg/kg b. wt): 0 | Mortality % ([5]; Female G4 500 mg/kg b. wt): 0% | Mortality No ([5]; Female G4 500 mg/kg b. wt): 0 | Morbidity % ([5]; Male G2 125 mg/kg b. wt): 0% | Morbidity No ([5]; Male G2 125 mg/kg b. wt): 0 | Mortality % ([5]; Male G2 125 mg/kg b. wt): 0% | Mortality No ([5]; Male G2 125 mg/kg b. wt): 0 | Morbidity % ([5]; Male G3 250 mg/kg b. wt): 0% | Morbidity No ([5]; Male G3 250 mg/kg b. wt): 0 | Mortality % ([5]; Male G3 250 mg/kg b. wt): 0% | Mortality No ([5]; Male G3 250 mg/kg b. wt): 0 | Morbidity % ([5]; Male G4 500 mg/kg b. wt): 0% | Morbidity No ([5]; Male G4 500 mg/kg b. wt): 0 | Mortality % ([5]; Male G4 500 mg/kg b. wt): 0% | Mortality No ([5]; Male G4 500 mg/kg b. wt): 0 | systemic toxicity ([5]; up to 500 mg/kg b. wt., daily intravenous bolus, 7 consecutive days): did not produce any systemic toxicity | inhibition compared with lapatinib (MDA-MB-468 cells [6]): stronger inhibition in compare to lapatinib | inhibition of growth [7]: dose dependent response; also recorded: dose dependent inhibition of growth
